The source of these data is article PMC11585353, “Metatranscriptomics-guided discovery and characterization of a polyphenol-metabolizing gut microbial enzyme” (Cell host & microbe, 2024).

This experiment has as its system T1, Gp Hcdh (Unk-9; G. pamelaeae HCA dehydroxylase).
T1 construct: native untagged enzyme purified from G. pamelaeae 3C grown with HCA (ammonium sulfate, HIC, AEC, SEC); two subunits; catalytic subunit 770 aa; one Mo per protein (bis-MGD); with Hydrocaffeic acid dehydroxylase accessory subunit
The experiment is described as follows: continuous spectrophotometric assay, methyl viologen oxidation at […] nm, Michaelis-Menten fit of initial rates. As to conditions: 100 nM enzyme, anaerobic, 50 mM MOPS pH 7.0, 300 mM NaCl, 200 uM methyl viologen, 100 uM sodium dithionite, HCA 0.0625-4 mM. In kind it is biochemical, Gordonibacter pamelaeae.

Regarding `O=C(O)CCc1ccc(O)c(O)c1` [HCA, 3,4-dihydroxyhydrocinnamic acid], the Km stood at 240 µM.
